Source: US20180243325A1, “METHOD FOR INHIBITING ABSORPTION OF AND/OR PROMOTING EXCRETION OF LIPIDS USING D-PSICOSE” (CJ CHEILJEDANG CORPORATION, priority 2015, published 2018)

Key:
Assay type in all cases: in vivo, C57BL/6J mice
[1] = system: high-fat diet-induced obese mice; experiment: Body weight, organ weight and adipose tissue weight of high-fat diet-induced obese mice; settings: for BWG (weight gain) / Organ weights: Liver / Adipose times weight: Epididymal fat / Adipose times weight: Interscapular BAT / Adipose times weight: Interscapular WAT / Adipose times weight: Mesentery fat / Adipose times weight: Perinephric fat / Adipose times weight: Retroperitoneum fat / Adipose times weight: Subcutaneous fat / Adipose times weight: Total WAT / Adipose times weight: Visceral fat / FER (food efficiency ratio = Weight gain/diet intake) / FinalBodyweight / Organ weights: Kidney / Organ weights: Muscle: HFD+5% w/w in diet, 16 weeks
Procedure: (§1) First, 4-week-old male C57BL/6J mice (60 total) were purchased from Jackson Laboratory. The animals were acclimated to the vivarium in a thermo-hygrostat (20-23° C., 45-65%) under a 12 h light/dark cycle and fed a pelletized commercial non-purified diet for 1 week after arrival. The mice were then randomly divided into 6 groups (n=10) and fed the respective experimental diets for 16 weeks: normal diet group (ND, American Institute of Nutrition (AIN)-76 semi-synthetic diet), high-fat diet group (HFD, 20% fat+1% cholesterol based on AIN-76 diet), PSI group (HFD+5% D-psicose, w/w, Sigma Chemical Company), ERY group (HFD+5% erythritol, w/w, Sigma Chemical Company), GLU group (HFD+5% D-glucose, w/w, Sigma Chemical Company), and FRU group (HFD+5% D-fructose, w/w, Sigma Chemical Company). All high-fat diet-fed groups were allowed to ingest the same calories by pair feeding based on the PSI group. The mice had ad libitum access to distilled water during the experimental period. Their feed intakes and body weights were measured daily and biweekly, respectively. The organ weights and the adipose tissue weights of the mice were measured after sacrificing the animals.

[2] = system: high-fat diet-induced obese mice; experiment: Plasma lipid profiles of high-fat diet-induced obese mice; settings: HFD+5% w/w in diet, 16 weeks
Procedure: as §1, with “animals. Plasma free fatty acid, phospholipid, apolipoprotein A-I (Apo A-I), and apolipoprotein B (ApoB B) levels were measured using Nittobo enzymatic kits (Nittobo medical Co., Tokyo, Japan). Plasma HDL-cholesterol, triglyceride (TG), and total cholesterol (total-C) levels were measured using Asan enzymatic kits (Asan, Seoul, South Korea).” for “animals.”

[3] = system: ApoB48 (apolipoprotein B 48, 238055); experiment: Small intestine mRNA expression, real-time quantitative PCR: ApoB48; settings: FIG. 8, HFD+5% w/w in diet, 16 weeks
Procedure: as §1
(§2) Samples were prepared and analyzed as previously described. Specifically, total RNA was synthesized into cDNA using a QuantiTect Reverse Transcription kit (QIAGEN Gmb1h, Hilden, Germany). RNA expression was quantified with real-time quantitative PCR using a QuantiTect SYBR Green PCR kit (QIAGEN Gmb1h, Hilden, Germany). Primers were designed to detect CD36 (cluster of differentiation 36, 12491), ApoB48 (apolipoprotein B 48, 238055), FATP4 (fatty acid transporter 4, 26569), ABCG5 (ATP-binding cassette sub-family G member5, 27409), and ABCG8 (ATP-binding cassette sub-family G member8, 67470). GAPDH was used as an internal transcription marker. The reaction was performed a total of 40 cycles (each consisting of 15 sec at 94° C., 30 sec at 58° C., 30 sec at 72° C., and 15 sec at 65° C.). Fluorescence signals were monitored every cycle and the resulting threshold cycles (Ct) were analyzed. mRNA expression in each experimental group was quantified using a CFX96 Real time system (Bio-rad, USA).

[4] = system: CPT2 (Carnitine palmitoyltransferase 2, 12896); experiment: Hepatic mRNA expression, real-time quantitative PCR: CPT2; settings: FIG. 6, liver, HFD+5% w/w in diet, 16 weeks
Procedure: as §1
as §2, with “FAS” for “CD36 (cluster of differentiation 36, 12491), ApoB48 (apolipoprotein B 48, 238055), FATP4”, “synthase, 14101), ACC1 (Acetyl-CoA carboxylase 1, 107476), CPT1α (Carnitine palmitoyltransferase 1α, 12894),” for “transporter 4, 26569), ABCG5 (ATP-binding cassette sub-family G member5, 27409),”, “CPT2 (Carnitine palmitoyltransferase 2, 12896).” for “ABCG8 (ATP-binding cassette sub-family G member8, 67470).”

Row | Structure (SMILES) | BWG (weight gain) [1] | Organ weights: Liver [1] | APO-A I/APO-B [2] | HTR, (HDL-C/Total-C) × 100 [2] | PL (plasma phospholipid) [2] | mRNA expression level of ApoB48 in the small intestine [3] | hepatic mRNA expression level of CPT2 [4] | Adipose times weight: Epididymal fat [1] | Adipose times weight: Interscapular BAT [1] | Adipose times weight: Interscapular WAT [1] | Adipose times weight: Mesentery fat [1] | Adipose times weight: Perinephric fat [1] | Adipose times weight: Retroperitoneum fat [1] | Adipose times weight: Subcutaneous fat [1] | Adipose times weight: Total WAT [1] | Adipose times weight: Visceral fat [1] | FER (food efficiency ratio = Weight gain/diet intake) [1] | FinalBodyweight [1] | Organ weights: Kidney [1] | Organ weights: Muscle [1] | also measured
1 | O=C(CO)[C@H](O)[C@H](O)[C@H](O)CO [PSI, D-psicose] | 0.70 g/16 weeks | 4.35 g/100 g Bodyweight | 3.80 | 42.98 | 107.23 mg/dL | significantly lower in the PSI group than those in other high-fat diet groups | much significantly lower than those in the ND group | – | – | – | – | – | – | – | – | – | – | – | – | – | increases in the body weight over time ([1]; FIG. 1, HFD+5% w/w in diet, measured biweekly over 16 weeks): considerably inhibited from 4 weeks after diet feeding; Organ weights: Liver ([1]; listed as D-psicose): to levels similar to those of the ND group; mRNA expression level of ApoB48 in the small intestine ([3]; listed as D-psicose): reduces mRNA expression
2 | OC[C@@H](O)[C@@H](O)CO [ERY, erythritol] | 1.32 g/16 weeks | 5.37 g/100 g Bodyweight | 3.16 | 23.95 | 135.46 mg/dL | significantly higher | significantly lower than those in the ND group | 7.92 g/100 g Body weight | 0.57 g/100 g Body weight | 4.56 g/100 g Body weight | 2.43 g/100 g Body weight | 0.92 g/100 g Body weight | 2.21 g/100 g Body weight | 4.88 g/100 g Body weight | 22.93 g/100 g Body weight | 18.36 g/100 g Body weight | 0.059 | 40.22 g | 0.77 g/100 g Bodyweight | 0.77 g/100 g Bodyweight | AI, atherogenic index, [(Total C) − HDL-C)]/HDL-C [2]: 3.55; ApoA-I [2]: 27.28 mg/dL; ApoB [2]: 8.61 mg/dL; FFA (plasma free fatty acid) [2]: 0.53 mmol/L; HDL-C [2]: 1.22 mmol/L; TG (plasma triglyceride) [2]: 1.25 mmol/L; Total-C (plasma total cholesterol) [2]: 5.35 mmol/L; nonHDL-C [2]: 4.36 mmol/L
3 | O=C[C@H](O)[C@@H](O)[C@H](O)[C@H](O)CO [GLU, D-glucose] | 1.39 g/16 weeks | 5.22 g/100 g Bodyweight | 2.92 | 20.19 | 104.86 mg/dL | significantly higher | significantly lower than those in the ND group | 8.42 g/100 g Body weight | 0.71 g/100 g Body weight | 4.54 g/100 g Body weight | 2.62 g/100 g Body weight | 1.15 g/100 g Body weight | 2.01 g/100 g Body weight | 5.47 g/100 g Body weight | 24.21 g/100 g Body weight | 19.67 g/100 g Body weight | 0.065 | 41.77 g | 0.74 g/100 g Bodyweight | 0.82 g/100 g Bodyweight | AI, atherogenic index, [(Total C) − HDL-C)]/HDL-C [2]: 3.76; ApoA-I [2]: 27.23 mg/dL; ApoB [2]: 9.32 mg/dL; FFA (plasma free fatty acid) [2]: 0.49 mmol/L; HDL-C [2]: 0.82 mmol/L; TG (plasma triglyceride) [2]: 1.28 mmol/L; Total-C (plasma total cholesterol) [2]: 4.07 mmol/L; nonHDL-C [2]: 3.25 mmol/L
4 | O=C(CO)[C@@H](O)[C@H](O)[C@H](O)CO [FRU, D-fructose] | 1.39 g/16 weeks | 5.68 g/100 g Bodyweight | 2.77 | 20.62 | 115.27 mg/dL | significantly higher | significantly lower than those in the ND group | 8.50 g/100 g Body weight | 0.73 g/100 g Body weight | 4.43 g/100 g Body weight | 2.93 g/100 g Body weight | 1.17 g/100 g Body weight | 2.19 g/100 g Body weight | 3.78 g/100 g Body weight | 22.65 g/100 g Body weight | 18.22 g/100 g Body weight | 0.065 | 41.26 g | 0.84 g/100 g Bodyweight | 0.83 g/100 g Bodyweight | AI, atherogenic index, [(Total C) − HDL-C)]/HDL-C [2]: 4.55; ApoA-I [2]: 27.69 mg/dL; ApoB [2]: 9.96 mg/dL; FFA (plasma free fatty acid) [2]: 0.48 mmol/L; HDL-C [2]: 0.83 mmol/L; TG (plasma triglyceride) [2]: 1.17 mmol/L; Total-C (plasma total cholesterol) [2]: 4.14 mmol/L; nonHDL-C [2]: 3.32 mmol/L
